This is an account of results in patent US4018801A, “Substituted oxirane compounds” (The Dow Chemical Company, priority 1975, dated 1977).

Experiment in all cases: Pre-emergent control of seed germination, soil drench
What all share (type): in vivo

One assay concerns Barnyard Grass. As to conditions: Barnyard Grass, about 2 weeks. In outline:
(§1)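 Compound formulated with Span 85/Tween 80 in acetone, dispersed in water, and applied as a soil drench to seeded beds at 1.0, 2.0 and 5.0 lb/acre (about 1.6, 3.2, 8.0 ppm soil); lower concentrations also tested. Germination control scored versus untreated checks after about 2 weeks.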

The subject of a further assay is Pigweeds. As to conditions: Pig Weeds, about 2 weeks. In outline:
as §1

The next assay concerns Wild Oats. As to conditions: Wild Oats, about 2 weeks. The procedure, abridged: as §1
In the next assay the test system is Yellow Foxtail. As to conditions: Yellow Foxtail, about 2 weeks. In outline:
as §1

For another assay, the system named is Crabgrass. Conditions: for Percent Pre-Emergent Control of Seed Germination: Crabgrass, about 2 weeks; for % Control: pre-emergence, Crab Grass.
For another assay, the system named is Johnson Grass. Conditions: Johnson Grass; for Percent Pre-Emergent Control of Seed Germination: about 2 weeks; for % Control: pre-emergence.

As for `ClC(Cl)(Cl)CC1(c2cccc(Br)c2)CO1` (stereo not shown) [Example 3, 2-(m-bromophenyl)-2-(2,2,2-trichloroethyl)oxirane], the “Percent Pre-Emergent Control of Seed Germination” value (shortened to “Percent Pre-Emergent Control”) with Barnyard Grass (1.0 pounds per surface acre) is 95%; in the assay on Barnyard Grass (2.0 pounds per surface acre), 95%; with Barnyard Grass (5.0 pounds per surface acre), 95%; in the assay with Pigweeds (1.0 pounds per surface acre) it was 95%; with Pigweeds (2.0 pounds per surface acre), 100%; with Pigweeds (5.0 pounds per surface acre), 100%. The “Percent Pre-Emergent Control” value in the assay with Wild Oats (1.0 pounds per surface acre) turned out to be 100%; with Wild Oats (2.0 pounds per surface acre) it was 100%; in the assay with Wild Oats (5.0 pounds per surface acre), 100%; in the assay on Yellow Foxtail (1.0 pounds per surface acre), 100%; with Yellow Foxtail (2.0 pounds per surface acre), 100%; in the assay on Yellow Foxtail (5.0 pounds per surface acre), 95%. Besides, the “Percent Pre-Emergent Control” value in the assay on Crabgrass (1.0 pounds per surface acre) is reported as 0%; with Crabgrass (2.0 pounds per surface acre) it was 100%; in the assay on Crabgrass (5.0 pounds per surface acre), 100%; with Johnson Grass (1.0 pounds per surface acre) it was 95%; in the assay with Johnson Grass (2.0 pounds per surface acre) it was 95%; with Johnson Grass (5.0 pounds per surface acre) it was 100%. For the same compound, the “% Control” value is recorded as 95% with Crabgrass (1/8 Lb/Acre), 70% in the assay with Crabgrass (1/16 Lb/Acre), 95% with Johnson Grass (1/8 Lb/Acre) and 95% with Johnson Grass (1/16 Lb/Acre).
